{"source": "paper PMC10454728", "about": "“A Comparative Study on the Lysosomal Cation Channel TMEM175 Using Automated Whole-Cell Patch-Clamp, Lysosomal Patch-Clamp, and Solid Supported Membrane-Based Electrophysiology: Functional Characterization and High-Throughput Screening Assay Development” (International Journal of Molecular Sciences, 2023)", "target": "T1, TMEM175 (Homo sapiens, UniProt Q9BSA9)", "T1 sequence (Q9BSA9 1-504)": "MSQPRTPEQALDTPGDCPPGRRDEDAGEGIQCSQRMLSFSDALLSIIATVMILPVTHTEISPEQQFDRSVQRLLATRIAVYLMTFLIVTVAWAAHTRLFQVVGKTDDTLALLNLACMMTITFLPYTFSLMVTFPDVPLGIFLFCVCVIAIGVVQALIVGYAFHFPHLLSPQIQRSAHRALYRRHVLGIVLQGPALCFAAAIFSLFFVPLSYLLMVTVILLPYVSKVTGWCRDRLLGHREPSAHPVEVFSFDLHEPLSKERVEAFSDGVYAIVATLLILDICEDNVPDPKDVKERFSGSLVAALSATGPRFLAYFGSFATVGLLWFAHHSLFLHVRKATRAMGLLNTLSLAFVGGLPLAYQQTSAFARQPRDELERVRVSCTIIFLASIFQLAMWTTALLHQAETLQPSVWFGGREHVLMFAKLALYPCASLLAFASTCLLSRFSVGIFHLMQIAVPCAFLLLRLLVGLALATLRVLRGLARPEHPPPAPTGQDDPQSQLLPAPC", "experiment": "SSME H+ flux assay (pH jumps) on TMEM175 lysosomes (SURFE2R N1)", "format": "biochemical", "settings": "10 mM 4-AP", "text": "To further investigate the capability of TMEM175 to translocate protons using SSME, we performed H^+ concentration or pH jumps using the SURFE^2R N1. The non-activating solution was set to pH 7.6, defining both the lysosomal and cytosolic pH before the start of the experiment. By exchanging the non-activating for the activating solution, we acidified the cytosolic solution and stimulated H^+ influx through TMEM175 (Figure 5A).\nHowever, the application of pH jumps lead to significant artifact currents of positive magnitude, as observed with the control lysosomes (Figure 5C). These artifacts are a result of protons interacting with the lipid membranes and/or unknown H^+ leak pathways through the lysosomal membrane. To conclude pure TMEM175-related H^+ currents, we subtracted the artifact currents from the currents recorded with the TMEM175 sample. When plotting ΔpH against the artifact-corrected average TMEM175 net H^+ current, we obtain a close-to-linear correlation (Figure 5D).\nFor comparison with the I/c curve reported for K^+ (Figure 3E), we calculated the difference in H^+ concentration across the lysosomal membrane Δc = cH^out − cH^in, which correlates linearly with the passive H^+ flux J = PH+Δc according to Fick’s law.\nWe used H^+ concentration or pH jumps to measure H^+ flux through TMEM175. Non-activating solution was set to pH 7.6, while activating solution contained different pH values between pH 7.4 and pH 4.6; (B) Representative current traces induced by pH jumps on lysosomes overexpressing TMEM175. All current traces were recorded with the same sensor, starting from the lowest ΔpH. […] The remaining current mostly reflects the background (artifact) current after full block of TMEM175; (C) Representative current traces from the same experiment on control lysosomes. […] This represents the artifact current also underlying the currents recorded with the TMEM175 sample; (D) SEM and average, artifact-corrected, normalized peak currents from N = 4 sensors, reflecting the H^+ flux through TMEM175, solely driven by the pH gradient. […]", "data": [{"smiles": "Nc1ccncc1", "note": "[4-AP, 4-aminopyridine]", "values": [{"measurement": "Block of H+ influx current", "setting": "ΔpH 3.0, pH 7.6 to 4.6", "result": "full block"}, {"measurement": "Effect on H+ efflux currents", "setting": "potency lower than for H+ influx", "result": "inhibited"}]}]}
